Assay results as given in ChEMBL document CHEMBL1153822, “Conformationally constrained peptidomimetic inhibitors of signal transducer and activator of transcription. 3: Evaluation and molecular modeling” (J Med Chem, 2009).
Numbered stars: 1 amine (or outer) side, 2 acyl side, 3 side chain; on linkers, the order of the positions; unused ones are H or OH. Square brackets hold non-standard residues; d marks the D form. Peptide text beside a SMILES is read from it. * marks the point of attachment. X4 = O=C([C@@H]1Cc2ccc(OP(=O)(O)O)cc2CN1[*:1])[*:2]; pY = N[C@@H](Cc1ccc(OP(=O)(O)O)cc1)C(=O)O; X7 = O=C(Cc1c[nH]c2ccc(OP(=O)(O)O)cc12)*; aThr = C[C@H](O)[C@H](N)C(=O)O

Target: Signal transducer and activator of transcription 3 (Homo sapiens, UniProt P40763)
Test: Inhibition of Stat3 by fluorescence polarization assay

Chain of Signal transducer and activator of transcription 3 (P40763 whole entry): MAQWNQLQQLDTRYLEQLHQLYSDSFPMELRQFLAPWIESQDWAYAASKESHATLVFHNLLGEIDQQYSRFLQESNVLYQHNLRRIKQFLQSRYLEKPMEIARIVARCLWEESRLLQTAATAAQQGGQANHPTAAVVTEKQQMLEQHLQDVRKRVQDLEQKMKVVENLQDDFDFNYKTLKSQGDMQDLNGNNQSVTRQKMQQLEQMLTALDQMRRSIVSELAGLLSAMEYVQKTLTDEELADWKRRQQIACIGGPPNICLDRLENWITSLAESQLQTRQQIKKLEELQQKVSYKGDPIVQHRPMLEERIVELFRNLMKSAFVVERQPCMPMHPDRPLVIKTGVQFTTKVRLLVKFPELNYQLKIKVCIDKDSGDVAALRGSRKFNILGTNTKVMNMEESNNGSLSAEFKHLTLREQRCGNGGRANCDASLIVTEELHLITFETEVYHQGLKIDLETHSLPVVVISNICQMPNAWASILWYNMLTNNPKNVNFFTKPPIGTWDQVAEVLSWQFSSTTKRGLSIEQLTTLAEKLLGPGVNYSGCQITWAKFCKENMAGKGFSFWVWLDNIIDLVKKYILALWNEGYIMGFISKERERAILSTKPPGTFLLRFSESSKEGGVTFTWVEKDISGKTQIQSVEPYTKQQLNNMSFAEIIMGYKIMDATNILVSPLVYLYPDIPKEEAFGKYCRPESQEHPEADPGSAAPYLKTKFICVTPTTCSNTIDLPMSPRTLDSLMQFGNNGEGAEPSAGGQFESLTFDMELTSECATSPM

SMILES | IC50 [nM]
CC(C)C[C@H](NC(=O)/C=C/c1ccc(OP(=O)(O)O)cc1)C(=O)N1CCC[C@H]1C(=O)N[C@@H](CCC(N)=O)C(=O)NCc1ccccc1 | 138
NC(=O)CC[C@H](NC(=O)[C@@H]1CC[C@@H]2CC[C@H](NC(=O)/C=C/c3ccc(OP(=O)(O)O)cc3)C(=O)N21)C(=O)NCc1ccccc1 | 604
CC(C)NC(=O)[C@H](CCC(N)=O)NC(=O)[C@@H]1Cc2cccc3c2N1C(=O)[C@@H](NC(=O)/C=C/c1ccc(OP(=O)(O)O)cc1)CC3 | 305
NC(=O)CC[C@H](NC(=O)[C@@H]1Cc2cccc3c2N1C(=O)[C@@H](NC(=O)/C=C/c1ccc(OP(=O)(O)O)cc1)CC3)C(N)=O | 233
NC(=O)CC[C@H](NC(=O)[C@@H]1Cc2cccc3c2N1C(=O)[C@@H](NC(=O)/C=C/c1ccc(OP(=O)(O)O)cc1)CC3)C(=O)NCc1ccccc1 | 162
NC(=O)CC[C@H](NC(=O)[C@@H]1Cc2cccc3c2N1C(=O)[C@@H](NC(=O)c1cc2cc(OP(=O)(O)O)ccc2[nH]1)CC3)C(=O)NCc1ccccc1 | 190
CNC(=O)[C@H](CCC(N)=O)NC(=O)[C@@H]1Cc2cccc3c2N1C(=O)[C@@H](NC(=O)/C=C/c1ccc(OP(=O)(O)O)cc1)CC3 | 269
CS(=O)(=O)CC[C@H](NC(=O)[C@@H]1Cc2cccc3c2N1C(=O)[C@@H](NC(=O)/C=C/c1ccc(OP(=O)(O)O)cc1)CC3)C(N)=O | 7030
CCCC[C@H](NC(=O)[C@@H]1Cc2cccc3c2N1C(=O)[C@@H](NC(=O)/C=C/c1ccc(OP(=O)(O)O)cc1)CC3)C(N)=O | 19200
O=C(O)CCCNC(=O)[C@@H]1Cc2cccc3c2N1C(=O)[C@@H](NC(=O)/C=C/c1ccc(OP(=O)(O)O)cc1)CC3 | 815
C[C@H](NC(=O)[C@@H]1Cc2cccc3c2N1C(=O)[C@@H](NC(=O)/C=C/c1ccc(OP(=O)(O)O)cc1)CC3)C(N)=O | 25100
COC(=O)[C@H](CCC(N)=O)NC(=O)[C@@H]1Cc2cccc3c2N1C(=O)[C@@H](NC(=O)/C=C/c1ccc(OP(=O)(O)O)cc1)CC3 | 141
C[S+]([O-])CC[C@H](NC(=O)[C@@H]1Cc2cccc3c2N1C(=O)[C@@H](NC(=O)/C=C/c1ccc(OP(=O)(O)O)cc1)CC3)C(N)=O (some centres not stated) | 7600
NC(=O)CC[C@H](NC(=O)[C@H]1CC[C@H]2CC[C@H](NC(=O)/C=C/c3ccc(OP(=O)(O)O)cc3)C(=O)N21)C(=O)NCc1ccccc1 | 59800
NC(=O)CC[C@H](NC(=O)[C@@H]1CC[C@H]2CC[C@H](NC(=O)/C=C/c3ccc(OP(=O)(O)O)cc3)C(=O)N21)C(=O)NCc1ccccc1 | 45700
NC(=O)CC[C@H](NC(=O)[C@@H]1Cc2cccc3c2N1C(=O)[C@@H](NC(=O)/C=C/c1ccc(OP(=O)(O)O)cc1)C=C3)C(=O)NCc1ccccc1 | 195
NC(=O)CC[C@H](NC(=O)[C@@H]1Cc2cccc3c2N1C(=O)[C@@H](NC(=O)/C=C/c1ccc(OP(=O)(O)O)cc1)CC3)C(=O)O | 359
NC(=O)[C@@H]1Cc2cccc3c2N1C(=O)[C@@H](NC(=O)/C=C/c1ccc(OP(=O)(O)O)cc1)CC3 | 35600
NC(=O)C1CCN(C(=O)[C@@H]2Cc3cccc4c3N2C(=O)[C@@H](NC(=O)/C=C/c2ccc(OP(=O)(O)O)cc2)CC4)C1 (some centres not stated) | 595
CC(=O)N1Cc2cc(OP(=O)(O)O)ccc2C[C@H]1C(=O)N[C@@H](CC(C)C)C(=O)N1CCC[C@H]1C(=O)N[C@@H](CCC(N)=O)C(=O)N[C@H](C(N)=O)[C@@H](C)O (Ac-[X4]LPQT-NH2) | > 100000
CC(=O)N[C@@H](Cc1ccc(OP(=O)(O)O)cc1)C(=O)N[C@@H](CC(C)C)C(=O)N1CCC[C@H]1C(=O)N[C@@H](CCC(N)=O)C(=O)N[C@H](C(N)=O)[C@H](C)O (Ac-[pY]LPQ[aThr]-NH2) | 739
CC(C)C[C@H](NC(=O)Cc1c[nH]c2ccc(OP(=O)(O)O)cc12)C(=O)N1CCC[C@H]1C(=O)N[C@@H](CCC(N)=O)C(=O)N[C@H](C(N)=O)[C@@H](C)O (X7-LPQT-NH2) | > 100000
